Reference: patent US8952024B2, “Herbicidal pyrimidone derivatives” (E I du Pont de Nemours and Company, priority 2009, dated 2015)

Columns and labels:
Format in all cases: in vivo
[1] = test system: barnyardgrass (Echinochloa crus-galli); assay: Test A pre-/postemergence plant response; settings: for Barnyardgrass plant response rating: visual injury, 0 to 100 scale (0 no effect, 100 complete control), approx. ten days
In short: (§1)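 Injury was scored visually after roughly ten days against untreated controls, 0 = no effect, 100 = complete control. Test chemicals in a surfactant-containing non-phytotoxic solvent were sprayed either onto soil preemergence or onto one- to two-leaf, 2–10 cm plants postemergence.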

corn (Zea mays) = assay: Test A pre-/postemergence plant response; settings: for Corn plant response rating: visual injury, 0 to 100 scale (0 no effect, 100 complete control), approx. ten days
In short: as §1

[2] = test system: giant foxtail (Setaria faberii); assay: Test A pre-/postemergence plant response; settings: for Foxtail, Giant plant response rating: visual injury, 0 to 100 scale (0 no effect, 100 complete control), approx. ten days
In short: as §1

[3] = test system: large crabgrass (Digitaria sanguinalis); assay: Test A pre-/postemergence plant response; settings: for Crabgrass, Large plant response rating: visual injury, 0 to 100 scale (0 no effect, 100 complete control), approx. ten days
In short: as §1

[4] = test system: morningglory (Ipomoea spp.); assay: Test A pre-/postemergence plant response; settings: for Morningglory plant response rating: visual injury, 0 to 100 scale (0 no effect, 100 complete control), approx. ten days
In short: as §1

[5] = test system: pigweed (Amaranthus retroflexus); assay: Test A pre-/postemergence plant response; settings: for Pigweed plant response rating: visual injury, 0 to 100 scale (0 no effect, 100 complete control), approx. ten days
In short: as §1

[6] = test system: velvetleaf (Abutilon theophrasti); assay: Test A pre-/postemergence plant response; settings: for Velvetleaf plant response rating: visual injury, 0 to 100 scale (0 no effect, 100 complete control), approx. ten days
In short: as §1

[7] = test system: wheat (Triticum aestivum); assay: Test A pre-/postemergence plant response; settings: for Wheat plant response rating: visual injury, 0 to 100 scale (0 no effect, 100 complete control), approx. ten days
In short: as §1

[8] = test system: barnyardgrass (Echinochloa crus-galli); assay: Test B flooded paddy test; settings: for Plant response rating, Flood, Barnyardgrass: 250 g ai/ha, flooded paddy test, visual rating on 0 to 100 scale (0 no effect, 100 complete control) after 13 to 15 days; for Plant response rating, Barnyardgrass: Flood (flooded paddy test), 13 to 15 days; for Barnyardgrass plant response rating: Flood, 31 g ai/ha, scale 0 to 100 (0 no effect, 100 complete control)
In short: (§2)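 Visual scores run from 0 (no effect) to 100 (complete control), assigned by comparison with controls 13 to 15 days after treatment. Test compounds went straight into water standing 3 cm above the soil, around plants at the 2-leaf stage kept in a greenhouse.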

[9] = test system: ducksalad (Heteranthera limosa); assay: Test B flooded paddy test; settings: for Plant response rating, Flood, Ducksalad: 250 g ai/ha, flooded paddy test, visual rating on 0 to 100 scale (0 no effect, 100 complete control) after 13 to 15 days; for Plant response rating, Ducksalad: Flood (flooded paddy test), 13 to 15 days
In short: as §2

rice (Oryza sativa) = assay: Test B flooded paddy test; settings: for Plant response rating, Flood, Rice: 250 g ai/ha, flooded paddy test, visual rating on 0 to 100 scale (0 no effect, 100 complete control) after 13 to 15 days; for Plant response rating, Rice: Flood (flooded paddy test), 13 to 15 days; for Rice plant response rating: Flood, 31 g ai/ha, scale 0 to 100 (0 no effect, 100 complete control)
In short: as §2

[10] = test system: umbrella sedge (Cyperus difformis); assay: Test B flooded paddy test; settings: for Plant response rating, Flood, Sedge, Umbrella: 250 g ai/ha, flooded paddy test, visual rating on 0 to 100 scale (0 no effect, 100 complete control) after 13 to 15 days; for Plant response rating, Sedge, Umbrella: Flood (flooded paddy test), 13 to 15 days; for Sedge, Umbrella plant response rating: Flood, 31 g ai/ha, scale 0 to 100 (0 no effect, 100 complete control)
In short: as §2

[11] = Postemergence, 125 g ai/ha, 0 to 100 scale where 0 is no effect and 100 is complete control
[12] = Preemergence, 125 g ai/ha, 0 to 100 scale, 0 = no effect, 100 = complete control
[13] = Preemergence, 500 g ai/ha, 0 to 100 scale, 0 = no effect, 100 = complete control
[14] = 62 g ai/ha, scale of 0 to 100 where 0 is no effect and 100 is complete control
[15] = 125 g ai/ha, scale 0 to 100, 0 is no effect, 100 is complete control

CCc1ccc(-n2c(-c3ccccc3)ncc(C(=O)C3=C(O)CCCC3=O)c2=O)cc1 [Compound 219]
40: Plant response rating, Barnyardgrass [1, 12] | Plant response rating, Sedge, Umbrella [10, 14]
80: Plant response rating, Foxtail, Giant [2, 13] | Plant response rating, Crabgrass, Large [3, 11] | Plant response rating, Morningglory [4, 13]
50: Plant response rating, Foxtail, Giant [2, 11] | Plant response rating, Crabgrass, Large [3, 12]
30: Corn plant response rating (corn (Zea mays); Postemergence, 500 g ai/ha) | Plant response rating, Velvetleaf [6, 12] | Wheat plant response rating ([7]; Postemergence, 500 g ai/ha)
0: Plant response rating, Corn (corn (Zea mays); [11]) | Plant response rating, Corn (corn (Zea mays); [12]) | Plant response rating, Corn (corn (Zea mays); [13]) | Plant response rating, Wheat [7, 11] | Plant response rating, Wheat [7, 12] | Plant response rating, Barnyardgrass [8, 14] | Barnyardgrass plant response rating [8] | Ducksalad plant response rating ([9]; Flood, 31 g ai/ha, scale 0 to 100 (0 no effect, 100 complete control)) | Plant response rating, Rice (rice (Oryza sativa); [14]) | Rice plant response rating (rice (Oryza sativa))
20: Plant response rating, Morningglory [4, 12] | Plant response rating, Wheat [7, 13] | Plant response rating, Barnyardgrass [8, 15] | Plant response rating, Ducksalad [9, 14] | Sedge, Umbrella plant response rating [10]
60: Plant response rating, Flood, Barnyardgrass [8] | Plant response rating, Sedge, Umbrella [10, 15]
85: Plant response rating, Flood, Sedge, Umbrella [10]
75: Plant response rating, Flood, Rice (rice (Oryza sativa))
10: Plant response rating, Foxtail, Giant [2, 12]
90: Plant response rating, Barnyardgrass [1, 11] | Barnyardgrass plant response rating ([1]; Postemergence, 500 g ai/ha) | Foxtail, Giant plant response rating ([2]; Postemergence, 500 g ai/ha) | Plant response rating, Pigweed [5, 12] | Plant response rating, Velvetleaf [6, 13] | Plant response rating, Flood, Ducksalad [9]
100: Plant response rating, Barnyardgrass [1, 13] | Crabgrass, Large plant response rating ([3]; Postemergence, 500 g ai/ha) | Plant response rating, Crabgrass, Large [3, 13] | Plant response rating, Morningglory [4, 11] | Morningglory plant response rating ([4]; Postemergence, 500 g ai/ha) | Plant response rating, Pigweed [5, 11] | Pigweed plant response rating ([5]; Postemergence, 500 g ai/ha) | Plant response rating, Pigweed [5, 13] | Plant response rating, Velvetleaf [6, 11] | Velvetleaf plant response rating ([6]; Postemergence, 500 g ai/ha)
70: Plant response rating, Rice (rice (Oryza sativa); [15])
65: Plant response rating, Ducksalad [9, 15]

CCCn1c(-c2ccsc2)ncc(C(=O)C2=C(O)C3CCC(C3)C2=O)c1=O (stereo not shown) [Compound 227]
30: Plant response rating, Rice (rice (Oryza sativa); [14])
60: Corn plant response rating (corn (Zea mays); Postemergence, 500 g ai/ha) | Plant response rating, Flood, Barnyardgrass [8]
50: Plant response rating, Barnyardgrass [1, 12] | Plant response rating, Morningglory [4, 12] | Plant response rating, Barnyardgrass [8, 15]
45: Plant response rating, Rice (rice (Oryza sativa); [15])
10: Plant response rating, Corn (corn (Zea mays); [11]) | Plant response rating, Corn (corn (Zea mays); [13]) | Plant response rating, Wheat [7, 13]
85: Plant response rating, Flood, Sedge, Umbrella [10] | Plant response rating, Sedge, Umbrella [10, 14] | Plant response rating, Sedge, Umbrella [10, 15]
80: Plant response rating, Foxtail, Giant [2, 13] | Plant response rating, Morningglory [4, 13] | Plant response rating, Pigweed [5, 12] | Plant response rating, Flood, Ducksalad [9] | Sedge, Umbrella plant response rating [10]
40: Plant response rating, Foxtail, Giant [2, 12] | Plant response rating, Barnyardgrass [8, 14]
75: Plant response rating, Ducksalad [9, 15]
55: Plant response rating, Flood, Rice (rice (Oryza sativa))
90: Plant response rating, Barnyardgrass [1, 11] | Barnyardgrass plant response rating ([1]; Postemergence, 500 g ai/ha) | Plant response rating, Foxtail, Giant [2, 11] | Foxtail, Giant plant response rating ([2]; Postemergence, 500 g ai/ha) | Plant response rating, Crabgrass, Large [3, 11] | Plant response rating, Crabgrass, Large [3, 12] | Plant response rating, Velvetleaf [6, 12]
0: Plant response rating, Corn (corn (Zea mays); [12]) | Plant response rating, Wheat [7, 11] | Wheat plant response rating ([7]; Postemergence, 500 g ai/ha) | Plant response rating, Wheat [7, 12]
20: Barnyardgrass plant response rating [8] | Rice plant response rating (rice (Oryza sativa))
100: Plant response rating, Barnyardgrass [1, 13] | Crabgrass, Large plant response rating ([3]; Postemergence, 500 g ai/ha) | Plant response rating, Crabgrass, Large [3, 13] | Plant response rating, Morningglory [4, 11] | Morningglory plant response rating ([4]; Postemergence, 500 g ai/ha) | Plant response rating, Pigweed [5, 11] | Pigweed plant response rating ([5]; Postemergence, 500 g ai/ha) | Plant response rating, Pigweed [5, 13] | Plant response rating, Velvetleaf [6, 11] | Velvetleaf plant response rating ([6]; Postemergence, 500 g ai/ha) | Plant response rating, Velvetleaf [6, 13]
